Measurements from ChEMBL document CHEMBL3627608, “Crystal structures of human RIP2 kinase catalytic domain complexed with ATP-competitive inhibitors: Foundations for understanding inhibitor selectivity” (Bioorg Med Chem, 2015).

Assays:
[1] = biological target: T1, Serine/threonine-protein kinase STK11 (Homo sapiens) (UniProt Q15831); test: Inhibition of LKB1 (unknown origin) at 10 uM after 120 mins P33 radiolabeled kinase activity assay
T1 sequence (whole entry): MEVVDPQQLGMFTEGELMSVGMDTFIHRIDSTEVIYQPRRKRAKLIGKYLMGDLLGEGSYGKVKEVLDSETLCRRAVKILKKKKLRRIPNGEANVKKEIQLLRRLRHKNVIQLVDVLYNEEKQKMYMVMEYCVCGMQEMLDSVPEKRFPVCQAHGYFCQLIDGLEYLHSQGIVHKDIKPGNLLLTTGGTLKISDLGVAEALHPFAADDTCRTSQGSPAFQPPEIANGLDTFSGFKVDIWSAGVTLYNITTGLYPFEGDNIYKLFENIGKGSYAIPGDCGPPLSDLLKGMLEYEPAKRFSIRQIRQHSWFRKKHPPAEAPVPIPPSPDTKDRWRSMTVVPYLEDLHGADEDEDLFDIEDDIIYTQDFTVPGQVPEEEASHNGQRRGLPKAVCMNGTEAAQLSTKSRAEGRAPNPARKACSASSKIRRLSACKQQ

[2] = biological target: T2, Inhibitor of nuclear factor kappa-B kinase subunit alpha (Homo sapiens) (UniProt O15111); test: Inhibition of IKKalpha (unknown origin) at 10 uM after 120 mins P33 radiolabeled kinase activity assay
T2 sequence (whole entry): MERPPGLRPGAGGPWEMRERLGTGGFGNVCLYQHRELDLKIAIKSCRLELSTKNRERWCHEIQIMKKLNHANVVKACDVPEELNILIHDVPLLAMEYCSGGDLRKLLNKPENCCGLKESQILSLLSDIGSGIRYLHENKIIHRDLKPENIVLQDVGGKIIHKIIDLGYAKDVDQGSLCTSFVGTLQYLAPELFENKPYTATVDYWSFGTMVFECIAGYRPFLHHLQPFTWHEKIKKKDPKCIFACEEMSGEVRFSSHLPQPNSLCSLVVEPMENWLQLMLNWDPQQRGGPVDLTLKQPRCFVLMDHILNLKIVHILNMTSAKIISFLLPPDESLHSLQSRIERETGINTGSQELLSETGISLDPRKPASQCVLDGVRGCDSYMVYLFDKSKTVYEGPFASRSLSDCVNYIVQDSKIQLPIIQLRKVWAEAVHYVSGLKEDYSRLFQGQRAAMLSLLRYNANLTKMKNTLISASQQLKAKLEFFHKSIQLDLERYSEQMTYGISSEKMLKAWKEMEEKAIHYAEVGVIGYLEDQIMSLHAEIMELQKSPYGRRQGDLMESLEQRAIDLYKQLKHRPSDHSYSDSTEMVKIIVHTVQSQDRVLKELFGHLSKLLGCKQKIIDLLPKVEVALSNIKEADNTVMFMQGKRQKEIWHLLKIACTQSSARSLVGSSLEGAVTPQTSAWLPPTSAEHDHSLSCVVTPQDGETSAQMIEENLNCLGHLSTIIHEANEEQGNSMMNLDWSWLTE

[3] = biological target: Tyrosine-protein kinase Lyn (Homo sapiens) (UniProt P07948); test: Inhibition of LYN B (unknown origin) at 10 uM after 120 mins P33 radiolabeled kinase activity assay
[4] = biological target: Calcium/calmodulin-dependent protein kinase type 1 (Homo sapiens) (UniProt Q14012); test: Inhibition of CAMK1alpha (unknown origin) at 10 uM after 120 mins P33 radiolabeled kinase activity assay
[5] = biological target: Tyrosine-protein kinase Blk (Homo sapiens) (UniProt P51451); test: Inhibition of BLK (unknown origin) at 10 uM after 120 mins P33 radiolabeled kinase activity assay
[6] = biological target: T3, Mitogen-activated protein kinase 12 (Homo sapiens) (UniProt P53778); test: Inhibition of P38gamma (unknown origin) at 10 uM after 120 mins P33 radiolabeled kinase activity assay
T3 sequence (whole entry): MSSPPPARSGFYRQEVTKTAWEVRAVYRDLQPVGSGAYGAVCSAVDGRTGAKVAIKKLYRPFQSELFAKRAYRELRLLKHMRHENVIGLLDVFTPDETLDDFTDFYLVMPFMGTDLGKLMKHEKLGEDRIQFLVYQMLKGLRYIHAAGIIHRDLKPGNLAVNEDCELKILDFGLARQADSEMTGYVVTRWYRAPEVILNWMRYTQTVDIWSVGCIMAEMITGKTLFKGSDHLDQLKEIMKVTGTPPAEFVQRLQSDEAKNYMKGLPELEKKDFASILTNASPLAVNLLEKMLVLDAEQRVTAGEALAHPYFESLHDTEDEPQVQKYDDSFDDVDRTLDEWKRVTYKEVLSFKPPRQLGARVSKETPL

[7] = biological target: cAMP-dependent protein kinase (PKA) (Homo sapiens) (UniProt P22694+P17612+P22612); test: Inhibition of PKA (unknown origin) at 10 uM after 120 mins P33 radiolabeled kinase activity assay; type: protein assay

Sequence of Tyrosine-protein kinase Lyn (Homo sapiens) (P07948 2-512 limits assumed): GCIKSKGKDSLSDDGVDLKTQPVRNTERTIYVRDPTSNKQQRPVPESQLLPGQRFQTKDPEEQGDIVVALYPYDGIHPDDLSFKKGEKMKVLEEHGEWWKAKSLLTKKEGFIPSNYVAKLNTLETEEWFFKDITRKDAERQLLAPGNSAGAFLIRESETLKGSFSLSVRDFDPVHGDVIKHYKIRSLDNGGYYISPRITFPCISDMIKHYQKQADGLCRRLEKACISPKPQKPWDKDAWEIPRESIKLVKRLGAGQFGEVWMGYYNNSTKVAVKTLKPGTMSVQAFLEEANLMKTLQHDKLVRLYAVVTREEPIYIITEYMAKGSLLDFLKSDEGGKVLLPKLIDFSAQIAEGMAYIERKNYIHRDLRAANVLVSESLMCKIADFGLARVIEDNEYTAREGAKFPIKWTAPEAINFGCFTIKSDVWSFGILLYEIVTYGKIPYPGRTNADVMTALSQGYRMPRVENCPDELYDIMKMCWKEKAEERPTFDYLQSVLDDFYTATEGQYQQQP
Sequence of Calcium/calmodulin-dependent protein kinase type 1 (Homo sapiens) (Q14012 whole entry, looked up): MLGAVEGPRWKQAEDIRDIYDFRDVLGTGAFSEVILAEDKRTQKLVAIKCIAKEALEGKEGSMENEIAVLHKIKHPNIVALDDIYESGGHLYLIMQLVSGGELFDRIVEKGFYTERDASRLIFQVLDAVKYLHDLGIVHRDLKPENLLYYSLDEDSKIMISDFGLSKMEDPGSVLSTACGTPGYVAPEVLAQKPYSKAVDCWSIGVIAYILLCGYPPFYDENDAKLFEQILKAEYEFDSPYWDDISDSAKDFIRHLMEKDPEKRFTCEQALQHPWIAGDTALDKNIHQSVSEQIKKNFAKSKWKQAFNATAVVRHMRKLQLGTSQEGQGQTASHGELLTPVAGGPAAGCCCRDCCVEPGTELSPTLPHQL
Sequence of Tyrosine-protein kinase Blk (Homo sapiens) (P51451 2-505 limits assumed): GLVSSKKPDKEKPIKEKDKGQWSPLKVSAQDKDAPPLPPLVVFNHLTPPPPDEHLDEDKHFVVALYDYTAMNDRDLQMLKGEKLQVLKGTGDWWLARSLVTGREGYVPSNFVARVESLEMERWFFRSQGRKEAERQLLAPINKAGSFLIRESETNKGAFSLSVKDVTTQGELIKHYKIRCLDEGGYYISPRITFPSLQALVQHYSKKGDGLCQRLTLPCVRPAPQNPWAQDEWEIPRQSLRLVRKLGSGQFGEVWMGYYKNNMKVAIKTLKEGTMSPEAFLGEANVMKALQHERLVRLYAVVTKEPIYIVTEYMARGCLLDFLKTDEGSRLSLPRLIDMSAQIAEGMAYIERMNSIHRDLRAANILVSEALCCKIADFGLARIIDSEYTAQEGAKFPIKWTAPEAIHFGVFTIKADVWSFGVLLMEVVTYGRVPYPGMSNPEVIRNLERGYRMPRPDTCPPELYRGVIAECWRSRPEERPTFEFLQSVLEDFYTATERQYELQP

CS(=O)(=O)c1cccc(Nc2nccc(-c3sc(N4CCOCC4)nc3-c3cccc(NS(=O)(=O)c4c(F)cccc4F)c3)n2)c1
inhibition [1]: 46.2% | inhibition [2]: 3.48% | inhibition [3]: 100% | inhibition [4]: 96.3% | inhibition [5]: 99.4% | inhibition [6]: 7.45% | inhibition [7]: 6.72%

COCCNC(=O)c1ccc2c(c1)nc(-c1cnc(-c3ccc(Cl)cc3)[nH]1)n2CCOC
inhibition [1]: 3.09% | inhibition [2]: 2.39% | inhibition [3]: 41.5% | inhibition [4]: 2.42% | inhibition [5]: 34.2% | inhibition [6]: -3.25% | inhibition [7]: 7.76%

CC(C)(C)c1cc(NC(=O)Nc2ccc(Oc3ccncc3)cc2)no1
inhibition [1]: 3.9% | inhibition [2]: 11.2% | inhibition [3]: 94.8% | inhibition [4]: 15% | inhibition [5]: 65.8% | inhibition [6]: 97.4% | inhibition [7]: 80.5%
